This is an account of results in patent US12696899B2, “Microbiocidal 2-acylamino-thiazole-4-carboxamide derivatives” (SYNGENTA CROP PROTECTION AG, priority 2018, dated 2026).

The nature of data set [1]: Photostability, thin-film irradiation in Atlas Suntest xenon lamp. Format: physicochemical. As to conditions: thin film on glass, Suntest 750 W/m2; time for first 50% loss. On the procedure: Photostability tests were carried out by irradiation of thin-film deposits of compounds and formulations on glass surfaces, using a filtered xenon lamp system (Atlas Suntest) which reproduces the spectrum and intensity of sunlight. The spectral output power of the Suntest was set to 750 W/m2, which is the typical daily maximum irradiance level at noon (UK, midsummer).
Test compounds were typically dissolved in HPLC grade methanol to give 1 g/L stock solutions. Alternatively, formulated compounds were suspended in water at the same concentration. 2 μL droplets of test solutions were spotted onto microscope cover slips in a 3D printed holder, allowed to dry then irradiated in the Suntest for varying times. Cover slips were then removed from the Suntest and placed in 4 dram vials; 1 mL of wash solvent (typically 30:70 acetonitrile: 0.2% aqueous formic acid) was added, and the vials shaken to extract compounds into solution. Solutions were analysed by reverse phase HPLC, typically using a Waters UPLC system with Photodiode Array (PDA) and Waters columns (BEH C18, 100×2.1 mm×1.7 μm) using mixed aqueous:acetonitrile mobile phase, acidifed with 0.2% formic acid. Peak detection was at the optimum wavelength for each candidate compound and PDA peak areas were used for quantification. Plots of % loss versus time were used to estimate T50 values, being the time taken for first 50% loss of test compound.

Data set [2] in a line: physchem. As to conditions: pH 7.
For data set [3] the following is noted: pH 7.2.
The subject of data set [4] is Pyrenophora teres. The experiment in a line: Example B15 Pyrenophora teres/barley/leaf disc preventative (net blotch). Format: in vivo. Conditions: foliar, barley leaf disc preventative, compared to untreated control.
Data set [5] deals with Magnaporthe grisea (Pyricularia oryzae). The experiment in a line: whole plant or invertebrate. As to conditions: foliar, read-out: control of Magnaporthe grisea. Type of data set: in vivo.
Data set [6] in a line: Solubility in aqueous buffer (10 mM mixed phosphate, pH 7.20).
A short description of data set [7]: Octanol-water partition coefficient (Log P) by HPLC on octanol-coated mini-columns. As to conditions: pH 7.
Data set [8] in a line: Solubility in heptane.
Data set [9] concerns Fusarium culmorum. Format: in vivo. Conditions: 200 ppm; wheat spikelet preventative; compared to untreated control.
In data set [10] the test system is Gibberella zeae (Fusarium graminearum). Type of data set: in vivo. As to conditions: 200 ppm; wheat spikelet preventative; compared to untreated control.

SMILES strings stand for the structures. Like-named read-outs stand apart in the source and are kept apart here.

As for `Cc1sc(N(C(=O)c2ccco2)c2cc(F)nc(F)c2)nc1C(=O)NC1CCC1(C)C` (stereo not shown) [I.b.614, 2-[(2,6-difluoro-4-pyridyl)-(furan-2-carbonyl)amino]-N-(2,2-dimethylcyclobutyl)-5-methyl-thiazole-4-carboxamide], the “Photostability T50” value in [1] stood at 14 h. The molecule further gave a chromatographic logP in data set [2] of 4.61. Also, the Solubility in water in data set [3] came to 0.054 ppm.
Take `COCC(=O)N(c1cc(F)nc(F)c1)c1nc(C(=O)NC2CCC23CCCC3)c(C)s1` (stereo not shown) [I.c.600, 2-[(2,6-difluoro-4-pyridyl)-(2-methoxyacetyl)amino]-5-methyl-N-spiro[3.4]octan-3-yl-thiazole-4-carboxamide]: the pest or weed control at 200 ppm in [4] and in data set [5] was ≥ 80% each time.
Turning to `COC(=O)N(c1cc(F)nc(F)c1)c1nc(C(=O)NC2CCC2(C)C)c(C)s1` (stereo not shown) [I.b.598, methyl N-(2,6-difluoro-4-pyridyl)-N-[4-[(2,2-dimethylcyclobutyl)carbamoyl]-5-methyl-thiazol-2-yl]carbamate], in [1], the “Photostability T50” value amounted to 6.2 h. Also, in data set [6], the Solubility in water is recorded as 1.4 ppm. Besides, in [7], the chromatographic logP turned out to be 4.21. Moreover, in data set [8], the Solubility in heptane came out at 1155 ppm.
Regarding `CC(=O)N(c1cc(F)nc(F)c1)c1nc(C(=O)NC2CCC2(C)C)c(C)s1` (stereo not shown) [I.b.596, 2-[acetyl-(2,6-difluoro-4-pyridyl)amino]-N-(2,2-dimethylcyclobutyl)-5-methyl-thiazole-4-carboxamide], the “Photostability T50” value in [1] was 5.5 h. The same molecule had a chromatographic logP in data set [2] of 3.8. The molecule also returned a Solubility in water in data set [3] of 3.7 ppm.
`COCC(=O)N(c1cc(F)nc(F)c1)c1nc(C(=O)NC2CCC2(C)C)c(C)s1` (stereo not shown) [I.b.600, 2-[(2,6-difluoro-4-pyridyl)-(2-methoxyacetyl)amino]-N-(2,2-dimethylcyclobutyl)-5-methyl-thiazole-4-carboxamide]: the “Photostability T50” value in data set [1] was 2.8 h. This molecule also returned a chromatographic logP in data set [2] of 3.35. For the same molecule, the “control of Fusarium culmorum” value in data set [9] is “at least 80%”. In [3], this molecule returned a Solubility in water of 18 ppm.
For the molecule `CCOC(=O)N(c1cc(F)nc(F)c1)c1nc(C(=O)NC2CCC2(C)C)c(C)s1` (stereo not shown) [I.b.599, ethyl N-(2,6-difluoro-4-pyridyl)-N-[4-[(2,2-dimethylcyclobutyl)carbamoyl]-5-methyl-thiazol-2-yl]carbamate], the “Photostability T50” value in data set [1] is listed as 11 h. In addition, in data set [2], the chromatographic logP was found to be 4.58. This molecule also displayed a Solubility in water in data set [3] of 1.0 ppm.
For the molecule `Cc1sc(Nc2cc(F)nc(F)c2)nc1C(=O)NC1CCC1(C)C` (stereo not shown) [Compound E-0, 2-[(2,6-difluoro-4-pyridyl)amino]-N-(2,2-dimethylcyclobutyl)-5-methyl-thiazole-4-carboxamide, reference compound], the “Photostability T50” value in data set [1] is listed as 3.5 h. In data set [3], the Solubility in water is given as 0.70 ppm.
Take `Cc1sc(N(C(=O)Oc2ccccc2)c2cc(F)nc(F)c2)nc1C(=O)NC1CCC1(C)C` (stereo not shown) [I.b.616, phenyl N-(2,6-difluoro-4-pyridyl)-N-[4-[(2,2-dimethylcyclobutyl)carbamoyl]-5-methyl-thiazol-2-yl]carbamate]: the “Photostability T50” value in data set [1] came to 18 h. This molecule also displayed a Solubility in water in [6] of 0.10 ppm. This molecule yielded a chromatographic logP in data set [7] of 5.34. This molecule showed a Solubility in heptane in data set [8] of 673 ppm.
`COC(=O)CC(=O)N(c1cc(F)nc(F)c1)c1nc(C(=O)NC2CCC2(C)C)c(C)s1` (stereo not shown) [I.b.607, methyl 3-[(2,6-difluoro-4-pyridyl)-[4-[(2,2-dimethylcyclobutyl)carbamoyl]-5-methyl-thiazol-2-yl]amino]-3-oxo-propanoate]: the “Photostability T50” value in [1] is listed as 4.4 h. For the same molecule, the chromatographic logP in data set [2] is 3.59. Further, the “control of Gibberella zeae” value in [10] is “at least 80%”. The same molecule gave a Solubility in water in data set [3] of 12 ppm.
Turning to `CCOC(=O)C(=O)N(c1cc(F)nc(F)c1)c1nc(C(=O)NC2CCC2(C)C)c(C)s1` (stereo not shown) [I.b.612, ethyl 2-[(2,6-difluoro-4-pyridyl)-[4-[(2,2-dimethylcyclobutyl)carbamoyl]-5-methyl-thiazol-2-yl]amino]-2-oxo-acetate], the “Photostability T50” value in data set [1] amounted to 5.5 h. Besides, the chromatographic logP in data set [2] stood at 4.34.
Regarding `Cc1sc(N(C=O)c2cc(F)nc(F)c2)nc1C(=O)NC1CCC1(C)C` (stereo not shown) [I.b.595, 2-[(2,6-difluoro-4-pyridyl)-formyl-amino]-N-(2,2-dimethylcyclobutyl)-5-methyl-thiazole-4-carboxamide], the “Photostability T50” value in data set [1] worked out at 2.8 h. Besides, the chromatographic logP in [2] was 3.61. This molecule also returned a Solubility in water in data set [3] of 2.5 ppm.
